{"source": "patent US20050113577A1", "about": "“Solid forms of slats with tyrosine kinase activity” (priority 2002, published 2005)", "key": {"human KDR": {"molecular_target": "T1, human KDR (Homo sapiens, UniProt P35968)", "T1 construct": "cloning the cytoplasmic domain of the KDR kinase as an in frame fusion at the carboxy terminus of the GST gene; made in house; host or cells: Spodoptera frugiperda (Sf21) insect cells, baculovirus vector pAcG2T", "T1 sequence (P35968 786-1356 limits assumed)": "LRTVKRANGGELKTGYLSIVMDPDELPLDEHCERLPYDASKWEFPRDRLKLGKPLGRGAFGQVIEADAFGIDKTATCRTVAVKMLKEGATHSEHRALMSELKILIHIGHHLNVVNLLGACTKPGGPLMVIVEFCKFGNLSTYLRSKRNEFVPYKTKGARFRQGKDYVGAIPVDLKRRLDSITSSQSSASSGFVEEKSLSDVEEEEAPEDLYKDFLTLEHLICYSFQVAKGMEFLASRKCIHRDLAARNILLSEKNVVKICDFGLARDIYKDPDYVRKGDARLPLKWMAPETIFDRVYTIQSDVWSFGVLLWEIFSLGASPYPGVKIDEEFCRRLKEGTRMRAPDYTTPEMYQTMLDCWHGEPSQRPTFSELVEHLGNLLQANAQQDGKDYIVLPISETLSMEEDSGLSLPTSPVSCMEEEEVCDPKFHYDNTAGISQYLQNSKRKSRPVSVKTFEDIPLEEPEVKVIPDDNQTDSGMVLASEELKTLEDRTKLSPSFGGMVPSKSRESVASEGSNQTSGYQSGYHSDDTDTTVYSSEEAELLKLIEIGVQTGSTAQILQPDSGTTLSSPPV", "experiment": "VEGF Receptor Kinase Assay", "type": "biochemical", "conditions": "tested by the assays described (KDR, HUVEC, Flt-1, Flt-3); no values given", "method": "Other assays are known in the literature and could be readily performed by those of skill in the art (see, for example, Dhanabal et al., Cancer Res. 59:189-197; Xin et al., J. Biol. Chem. 274:9116-9121; Sheu et al., Anticancer Res. 18:4435-4441; Ausprunk et al., Dev. Biol. 38:237-248; Gimbrone et al., J. Natl. Cancer Inst. 52:413-427; Nicosia et al., In Vitro 18:538-549).\nVEGF receptor kinase activity is measured by incorporation of radio-labeled phosphate into polyglutarnic acid, tyrosine, 4:1 (pEY) substrate. The phosphorylated pEY product is trapped onto a filter membrane and the incorporation of radio-labeled phosphate quantified by scintillation counting.\nThe intracellular tyrosine kinase domains of human KDR (Tennan, B. I. et al. Oncogene (1991) vol. 6, pp. 1677-1683.) and Flt-1 (Shibuya, M. et al. Oncogene (1990) vol. 5, pp. 519-524) were cloned as glutathione S-transferase (GST) gene fusion proteins. This was accomplished by cloning the cytoplasmic domain of the KDR kinase as an in frame fusion at the carboxy terminus of the GST gene. Soluble recombinant GST-kinase domain fusion proteins were expressed in Spodoptera frugiperda (Sf21) insect cells (Invitrogen) using a baculovirus expression vector (pAcG2T, Pharmingen). […]"}, "[1]": {"experiment": "Solubility in water and organic solvents at room temperature (suspended for 7 days)", "type": "physicochemical", "method": "[table] The solubility of Form A HCl Salt at room temperature was determined in water and several organic solvents that can be used in pharmaceutical processing."}, "[2]": {"experiment": "Solubility in various aqueous solvent systems measured for 20 hours", "type": "physicochemical", "method": "[table] The solubility of Form A in various aqueous solvent systems was measured for a period of 20 hours."}, "[3]": {"experiment": "Partition coefficient between 1-octanol and water", "type": "physicochemical", "conditions": "1-octanol/water; pH (equilibrium) 3.8 (native); 0.033 mg/mL in aqueous phase at start", "method": "Partition coefficient of Form A between I-octanol and water were determined at the native pH of the HCl Salt (Table III)."}, "[4]": {"experiment": "Hygroscopicity, step isotherm program 0 to 95% RH", "type": "physicochemical", "conditions": "25° C.", "method": "The hygroscopicity of Form A was determined at 25° C. using a step isotherm program for relative humidities from 0 to 95% RH under nitrogen flow."}, "[5]": {"experiment": "Solid form stability in suspension/slurry (XRPD)", "type": "physicochemical", "method": "An X-ray powder diffraction pattern of Form A is indicative of a crystalline material with multiple diffraction peaks between 5° and 30° 2-theta."}}}
{"smiles": "CS(=O)(=O)N1CCN(Cc2ccc3[nH]c(-c4cc5ccccc5[nH]c4=O)cc3c2)CC1", "note": "[Compound 1-11, 3-[5-(4-Methanesulfonyl-piperazin-1-ylmethyl)-1H-indol-2-yl]-1H-quinolin-2-one]", "values": [{"measurement": "kinase inhibitory activity", "setting": "human KDR", "result": "inhibits the kinase KDR"}]}
{"smiles": "CS(=O)(=O)N1CCN(Cc2ccc3[nH]c(-c4cc5ccccc5[nH]c4=O)cc3c2)CC1.Cl", "note": "[Form A, hydrochloride salt of 3-[5-(4-methanesulfonyl-piperazin-1-ylmethyl)-1H-indol-2-yl]-1H-quinolin-2-one]", "values": [{"measurement": "Solubility", "setting": "[1]; Aqueous ETOH (50%)", "result": 4340, "unit": "µg/mL"}, {"measurement": "Solubility", "setting": "[1]; Aqueous IPA (50%)", "result": 3990, "unit": "µg/mL"}, {"measurement": "Solubility", "setting": "[1]; Ethanol", "result": 130, "unit": "µg/mL"}, {"measurement": "Solubility", "setting": "[1]; Isopropanol", "result": 57, "unit": "µg/mL"}, {"measurement": "Solubility", "setting": "[1]; Water", "result": 260, "unit": "µg/mL"}, {"measurement": "Solubility", "setting": "[2]; 10% EtOH", "result": 380, "unit": "µg/mL"}, {"measurement": "Solubility", "setting": "[2]; 10% IPA", "result": 470, "unit": "µg/mL"}, {"measurement": "Solubility", "setting": "[2]; 25% EtOH", "result": 1060, "unit": "µg/mL"}, {"measurement": "Solubility", "setting": "[2]; 25% IPA", "result": 1780, "unit": "µg/mL"}, {"measurement": "Solubility", "setting": "[2]; 50% Acetone", "result": 10660, "unit": "µg/mL"}, {"measurement": "Solubility", "setting": "[2]; 50% EtOH", "result": 3820, "unit": "µg/mL"}, {"measurement": "Solubility", "setting": "[2]; 50% IPA", "result": 4390, "unit": "µg/mL"}, {"measurement": "Solubility", "setting": "[2]; 75% EtOH", "result": 3860, "unit": "µg/mL"}, {"measurement": "Solubility", "setting": "[2]; 75% IPA", "result": 2290, "unit": "µg/mL"}, {"measurement": "Solubility", "setting": "[2]; Acetone", "result": 61, "unit": "µg/mL"}, {"measurement": "log P (log Ko/w)", "setting": "[3]", "result": "−4.34"}, {"measurement": "Hygroscopicity", "setting": "[4]; 0 to 95% RH under nitrogen flow", "result": "not hygroscopic"}, {"measurement": "Moisture reversibly adsorbed", "setting": "[4]; 75% RH", "result": "approximately 1%"}, {"measurement": "Change in crystal structure (XRPD)", "setting": "[5]; suspended in aqueous ethanol for seven days at RT", "result": "No change in crystal structure"}]}
{"smiles": "CS(=O)(=O)N1CCN(Cc2ccc3[nH]c(-c4cc5ccccc5[nH]c4=O)cc3c2)CC1.Cl", "note": "[Form E, hydrochloride salt of 3-[5-(4-methanesulfonyl-piperazin-1-ylmethyl)-1H-indol-2-yl]-1H-quinolin-2-one]", "values": [{"measurement": "Solid form after slurry", "setting": "[5]; slurry in water at room temperature for seven days", "result": "provided Form D crystalline solid"}]}
